Test results from patent publication US20230270692A1, “COMPOUNDS FOR CHRONIC DISORDERS” (Pillai Universal LLC, priority 2020, published 2023).
≈ marks a conversion by molar mass, not a printed value. Where two headings read alike, the source gives them in different places.

Experiments:
[1] = system: Pancreatic adenocarcinoma cells (PANC); assay: MTT cell viability of pancreatic cancer cells; type: cell-based, Human
Procedure: The synthesized compounds of Formula 1-4 were evaluated for cell proliferation, apoptosis, cell cycle arrest, the generation of reactive oxygen species and calcium were measured using MTT assay and flow cytometry, respectively. The expression of apoptosis- and proliferation-related proteins was determined by western blotting. The effect of molecules on apoptosis-related mRNA expression in cancer cells was detected by RT-PCR.
Changes in cell morphology were detected by the presence of cell membrane blebbing, chromatin condensation, and formation of apoptotic bodies (FIG. 10A).

[2] = system: Class I HDAC (HDAC1, HDAC2, HDAC3, HDAC8); assay: Class I HDAC expression/inhibition by western blotting in PANC cells; type: cell-based, Human
Procedure: Class I HDAC expression during pancreatic tumorigenesis was next examined. Briefly different concentration of Compound I were added and incubated for 24 h. […] Inhibition of Class I HDACs is associated with the upregulation of histone H3 acetylation and p21 mRNA and protein expression which have associated with the anti-proliferative activity. It has also been reported that HDAC6 functions as a α-tubulin deacetylase, modulating tubulin stability. Because α-tubulin and histone H3 are mutual downstream targets of HDACs, the relationship between protein expression and function of molecules was further examined. The effects of Compound I on histone H3 acetylation in PANC cells using western blot analysis was studied.

[3] = system: cancer stem cells; assay: Cancer stem cell marker expression; type: cell-based
Description: CSCs have significant impact on the tumor progression, drug resistance, recurrence and metastasis in different types of malignancies. Conventional cancer chemotherapy often fails as most anti-cancer drugs are not effective against drug-resistant CSCs. These surviving CSCs lead to relapse and metastasis. Most studies report that conventional therapeutic agents have limited access to the CSCs due to their hypoxic microenvironment and distant location from the vasculature that retards the efficacy of anti-CSC drugs (FIG. 14). However, the disclosed compounds may overcome this limitation and may penetrate into a deeper location and destroy CSCs. Accordingly, in embodiments, the present invention provides a method of inhibiting cancer stem cell survival and/or self-renewal comprising administering to a cancer stem cell an effective amount of a compound disclosed herein, e.g., Compound I (FIG. 13).
The compounds of the disclosure inhibited the expression of the genes in the follow cancers (FIG. 18): • Breast: CD44+CD24−/low Lineage−, ALDH-1high • Liver: CD133+, CD49f+, CD90+ • Colon: CD133+, CD44+, CD166+, EpCAM+, CD24+ • Pancreatic: CD133+, CD44+, EpCAM+, CD24+ • Leukemia: CD34+CD38− • Lungs: CD133+, ABCG2^High • Leukemia: CD34+, CD38−, HLA−, DR−, CD71−, CD90−, CD117−, CD123+
Reduction of stem cell surface marker expressions are seen within 1 hour and up to a maximum of […]. […]

[4] = system: lung cancer stem cells; assay: Targeting lung cancer stem cells
Description: Compound I is orally bioavailable, multi-tyrosine-kinase inhibitor with 120 target proteins that induces apoptosis and suppresses the invasiveness of lung cancer stem cells with no toxicity to normal cells. There were no signs of discomfort or any cardiovascular or respiratory disorders observed in animals after the administration throughout the study period.

[5] = system: SARS-CoV-2; assay: microbe, parasite or virus in culture; type: cell-based
[6] = system: SARS-CoV-2; assay: Antiviral activity against SARS-CoV-2 in Calu-3 cells; type: cell-based
[7] = system: SARS-CoV-2; type: cell-based
[8] = system: SARS-CoV-2; assay: Inactivation of SARS-CoV-2 upon direct exposure; settings: Severe acute respiratory syndrome coronavirus 2, read-out: 50% reduction (IC50), inactivation of SARS-CoV-2
[9] = Reduction of hydroxychloroquine side effects; settings: treatment of COVID-19
Description: Coronavirus disease (COVID-19) is an infectious disease caused by virus SARS-CoV-2. The disease causes respiratory illness with symptoms such as a cough, fever, and in more severe cases, difficulty breathing. At present, one drug that may be effective in treating COVID-19 is hydroxychloroquine. However the drug hydroxychloroquine causes serious side effects including cardiovascular diseases, eye damage, mild or severe bronchospasm, and also affects mental health. The effect of Compound I of the present invention in reducing the side effects associated with hydroxychloroquine was studied according to methods known in the art.

[10] = Acute oral toxicity (OECD 423); type: in vivo
Procedure: Experimental Design: The assay of acute toxicity was performed according to the Organization for Economic Cooperation and Development (OECD) guideline 423 (OECD, 2001a). A total of 60 mice weighing between 27 and 37 g were randomly divided into six experimental groups of 10 mice each (5 males and 5 females per group). After fasting overnight Compound I was administered to each treatment group at single doses of 200, 500 1000, 2000, mg/kg, respectively, by oral gavage. The control groups were treated with the same volume of distilled water. After dosing, all animals were observed individually for mortality and changes in general behavior during the first 30 min, then at 2, 4, 6, 10 and 24 h following treatment. Symptoms of toxicity such as hypo-activity, piloerection, breathing difficulty, tremors, and convulsion were evaluated after administration of the various doses. The LD 50 value was determined according to the method described by the OECD Guidelines 423 (OECD, 2001a). During the remaining experimental period, the animal observation was performed at least once per day for the post-dosing period of 14 days. Body weights were measured at the initiation of treatment, and on days 4, 7, 11 and 14 after administration. On the 14th day, the mice were sacrificed under anesthesia, and vital organs (heart, kidneys, lung, spleen and liver) were removed for macroscopic examination.

[11] = system: Vero cells; settings: any of the concentrations tested

With `COc1cc(/C=C/C(=O)/C=C/C=C/c2cc(OC)c(O)c(OC)c2)cc(OC)c1` [Compound I] the cell viability ([1]; 24 and 48 h, 1-100 μg/mL) was “decreased significantly in time- and dose-dependent manners”, the cytotoxicity at 10 µg/mL ([1]; Homo sapiens, Pancreatic cancer cell, read-out: decrease in viable cells) was about 65.5% and the IC50 ([1]; Homo sapiens, Pancreatic cancer cell, PANC cells, after 24 hours of exposure) was 5.74 ± 0.02 µg/mL (≈ 14.5 µM). For the same compound, the “protein expression of Class I HDAC” value ([2]; 24 h, western blotting, vs control p<0.05) was “decreased in a dose-dependent manner”, the “inhibition of HDAC1, HDAC2, HDAC3 and HDAC8” value ([2]; PANC cells) was “significantly inhibited” and the “cancer stem cell markers / gene expression” value [3] was “inhibition”. The “effect on lung cancer stem cells” value [4] was “induces apoptosis and inhibits metastasis without harming the normal cells”, the “reduction in viral RNA in supernatant and cell pellets” value ([5]; 1 μM, at 48 h, compared to control samples) was 99% and the “viral RNA in supernatant and cell pellets” value ([5]; 11 μM (figure legend)) was “reduction in viral RNA”. The IC50 ([5]; Severe acute respiratory syndrome coronavirus 2, Vero cells, MOI 0.1, read-out: IC50 (inhibition of virus yield)) was 1000 nM, the “viral load measured by nucleoprotein expression” value ([5]; Vero cells, 48 h p.i., immunofluorescence) was “substantially reduced” and the “reduction in cell-associated viral RNA” value ([5]; at 24 h) was 99%. The “reduction in viral RNA present in the supernatant” value ([5]; at 24 h, compared to vehicle DMSO) was 100%, the viral material ([5]; by 36 h) was “effective loss of essentially all viral material” and the “inhibition of intracellular SARS-CoV-2 RNA levels” value ([6]; Calu-3, 24 h p.i., RT-PCR) was “more than 95 % of control”. The IC50 ([6]; Severe acute respiratory syndrome coronavirus 2, Calu-3, read-out: average half-maximum effective concentration (IC50)) was 1500 nM, the IC50 ([6]; Severe acute respiratory syndrome coronavirus 2, Calu-3, read-out: calculated IC50 (viral genomic RNA in supernatants, qRT-PCR)) was 5000 nM and the IC50 ([6]; Severe acute respiratory syndrome coronavirus 2, Calu-3 cultures, 0.1-5 μM, read-out: average IC50 (reduction in replication)) was 10 nM. For the same compound, the IC50 ([6]; Severe acute respiratory syndrome coronavirus 2, calu-3 cell line, replication, read-out: IC 50) was 10000 nM, the “virus titer of treated cells” value ([6]; calu-3, 10 μM Compound I treated cells) was at most 102 TCID50/ml and the inhibition ([7]; 1 μM added after 10 h post infection) was “no inhibition”. The inhibition ([7]; 1 μM added between 6 and 8 h post infection) was “Less inhibition”, the inhibition ([7]; 1 μM added between 2 h pre-infection and 2-h post infection) was “Maximal inhibition” and the “viral RNA levels (qPCR)” value ([7]; increasing concentrations) was “decreased”. For the same compound, the IC50 [8] was 1000 nM, the “effect on hydroxychloroquine side effects” value [9] was “assists in potentiating hydroxychloroquine by reducing the side effects” and the treatment related death ([10]; acute, 14-day observation, both sexes) was “no treatment related death was observed”. For the same compound, the LD50 at 14 days ([10]; both sexes, mouse, in vivo, oral, read-out: median lethal dose (LD50)) was over 2000 mg/kg, the GHS classification ([10]; both, mouse, in vivo, 14 days) was “Category 5” and the Toxicity [11] was “no toxicity was observed”.
